One block for each molecule: values may come before it.
Columns and labels:
TGFBR2 = biological target: T1, TGFBR2 (Homo sapiens, UniProt P37173); assay: TGFBR2 RBC assay (enzyme inhibition assay, Reaction Biology Corp.); type: biochemical
T1 construct: purchased Reaction Biology Corp
Method: Compounds of the disclosure were also assayed by Reaction Biology Corp. using the TGFBR2 RBC assay (enzyme inhibition assay). […] NT refers to not tested.

[1] = tested on: TGFβ/SMAD Signaling Pathway SBE reporter cell line; assay: TGFβ reporter assay, in vitro small molecule screening (luciferase); type: cell-based; details: TGFβ stimulation, luminescence
Method in brief: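 SBE luciferase reporter cells (~0.5×10^6 cells/mL) preincubated with compound 5-6 h at 37 °C in 0.5% FBS MEM, then stimulated with TGFβ (12 ng/mL stock) for 18 h. Luminescence read after luciferase substrate; EC50 from curve fits.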

full length human LRRC15 = biological target: T2, full length human LRRC15 (human, UniProt Q8TF66 22-581); assay: cell-based or functional assay
T2 sequence (looked up): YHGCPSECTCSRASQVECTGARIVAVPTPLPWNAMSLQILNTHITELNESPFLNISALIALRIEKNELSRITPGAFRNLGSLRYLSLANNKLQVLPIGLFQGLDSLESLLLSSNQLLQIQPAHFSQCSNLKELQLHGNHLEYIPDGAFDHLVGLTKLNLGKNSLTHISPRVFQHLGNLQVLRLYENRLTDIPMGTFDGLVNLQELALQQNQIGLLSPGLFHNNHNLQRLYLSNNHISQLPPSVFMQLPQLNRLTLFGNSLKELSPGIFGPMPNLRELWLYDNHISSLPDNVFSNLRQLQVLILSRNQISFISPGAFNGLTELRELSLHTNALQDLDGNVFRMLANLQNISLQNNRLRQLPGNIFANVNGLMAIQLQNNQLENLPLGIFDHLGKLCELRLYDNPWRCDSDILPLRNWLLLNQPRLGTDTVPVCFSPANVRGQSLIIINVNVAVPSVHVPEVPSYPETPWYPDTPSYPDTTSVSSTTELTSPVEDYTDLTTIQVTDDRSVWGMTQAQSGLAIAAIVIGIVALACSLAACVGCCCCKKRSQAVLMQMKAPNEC

T1 sequence (P37173 23-567): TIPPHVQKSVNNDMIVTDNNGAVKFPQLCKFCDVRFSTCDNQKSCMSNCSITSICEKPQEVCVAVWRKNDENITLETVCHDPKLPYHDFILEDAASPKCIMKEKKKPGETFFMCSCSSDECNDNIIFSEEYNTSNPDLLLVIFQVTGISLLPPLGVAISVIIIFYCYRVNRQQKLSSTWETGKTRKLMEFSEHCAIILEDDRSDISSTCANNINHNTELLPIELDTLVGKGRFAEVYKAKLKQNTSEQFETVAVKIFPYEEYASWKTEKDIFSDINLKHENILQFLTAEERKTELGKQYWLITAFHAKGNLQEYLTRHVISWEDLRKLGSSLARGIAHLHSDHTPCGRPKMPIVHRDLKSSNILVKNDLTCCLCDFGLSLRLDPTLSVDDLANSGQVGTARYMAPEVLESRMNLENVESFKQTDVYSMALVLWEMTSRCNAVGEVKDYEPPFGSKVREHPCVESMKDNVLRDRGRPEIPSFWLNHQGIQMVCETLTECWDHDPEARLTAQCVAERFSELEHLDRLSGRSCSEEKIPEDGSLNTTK

- IC50 (TGFBR2): 100 to 1000 nM
- EC50 [1]: 100 to 1000 nM
Molecule: CC(C)(C)OC(=O)NCC1CCc2cc(-c3cnc(N)c(C(=O)Nc4cnccc4N4CCOCC4)n3)ccc2N1 (stereo not shown) [Compound 243]

- IC50 (TGFBR2): < 50 nM
- EC50 [1]: 100 to 1000 nM
Molecule: NCC1CCc2cc(-c3cnc(N)c(C(=O)Nc4cnccc4N4CCOCC4)n3)ccc2N1 (stereo not shown) [Compound 244]

- IC50 (TGFBR2): < 50 nM
- EC50 [1]: 100 to 1000 nM
Molecule: Nc1ncc(-c2ccc3c(c2)CC(O)CC3)nc1C(=O)Nc1cnccc1N1CCOCC1 (stereo not shown) [Compound 246]

- IC50 (TGFBR2): > 1000 nM
- EC50 [1]: > 1000 nM
Molecule: CNc1ncc(-c2ccc(OC(C)CN)cc2)nc1C(=O)Nc1cnccc1N1CCOCC1 (stereo not shown) [Compound 254]

- IC50 (TGFBR2): < 50 nM
- EC50 [1]: > 1000 nM
Molecule: CC(CN)Oc1ccc(-c2cnc(N)c(C(=O)Nc3cnccc3N3CCCCOCC3)n2)cc1 (stereo not shown) [Compound 257]

- IC50 (TGFBR2): < 50 nM
- EC50 [1]: < 50 nM
Molecule: Nc1ncc(-c2ccc(N3CCOCC3)cc2)nc1C(=O)Nc1cnccc1N1CCOCC1 [Compound 258]

- IC50 (TGFBR2): < 50 nM
- EC50 [1]: 100 to 1000 nM
Molecule: Nc1ncc(-c2ccc(N3CCCC3)cc2)nc1C(=O)Nc1cnccc1N1CCOCC1 [Compound 262]

- IC50 (TGFBR2): < 50 nM
- EC50 [1]: > 1000 nM
Molecule: COC(=O)[C@H](CCOc1ccc(-c2cnc(N)c(C(=O)Nc3cnccc3N3CCOCC3)n2)cc1)NC(=O)OCc1ccccc1 [Compound 264]

- IC50 (TGFBR2): < 50 nM
- EC50 [1]: > 1000 nM
Molecule: Nc1ncc(-c2ccc(OCC[C@H](NC(=O)OCc3ccccc3)C(=O)O)cc2)nc1C(=O)Nc1cnccc1N1CCOCC1 [Compound 265]

- IC50 (TGFBR2): < 50 nM
- EC50 [1]: 100 to 1000 nM
Molecule: CC(C)(C)OC(=O)NCCNc1ccc(-c2cnc(N)c(C(=O)Nc3cnccc3N3CCOCC3)n2)cc1 [Compound 266]

- IC50 (TGFBR2): < 50 nM
- EC50 [1]: 100 to 1000 nM
Molecule: CN(CCNC(=O)OC(C)(C)C)c1ccc(-c2cnc(N)c(C(=O)Nc3cnccc3N3CCOCC3)n2)cc1 [Compound 267]

- IC50 (TGFBR2): 50 to 100 nM
- EC50 [1]: > 1000 nM
Molecule: Nc1ncc(-c2ccc(OCC[C@@H](N)C(=O)O)cc2)nc1C(=O)Nc1cnccc1N1CCOCC1 [Compound 275]

- absolute IC50 of TGFβ1-induced SMAD2 promoter luciferase activity, HEK293 reporter cells expressing human LRRC15 (full length human LRRC15): < 10 nM
B2: anti-LRRC15 humanized IgG1 M25 antibody with Fc null domain conjugated to LP10 (antibody, V domains shown)
VH: EVQLVQSGAEVKKPGASVKVSCKASGYKFSSYWIEWVKQAPGQGLEWIGEILPGSDTTNYNEKFKDRATFTSDTSINTAYMELSRLRSDDTAVYYCARDRGNYRAWFGYWGQGTLVTVSS
VL: DIQMTQSPSSLSASVGDRVTITCRASQDISNYLNWYQQKPGGAVKFLIYYTSRLHSGVPSRFSGSGSGTDYTLTISSLQPEDFATYFCQQGEALPWTFGGGTKVEIK
modifications: linker-payload LP10 on interchain disulfide cysteines, average DAR 2.5-4

Further lines, the molecule ahead of its results:

Molecule: COC(=O)c1cc(-c2cnc(NC(=O)OC(C)(C)C)c(C(=O)Nc3cnccc3N3CCOCC3)n2)ccc1OCCCNC(=O)OC(C)(C)C [Compound 242]
- IC50 (TGFBR2): 50 to 100 nM
- EC50 [1]: > 1000 nM

Molecule: Nc1ncc(-c2ccc3c(c2)CCCC3O)nc1C(=O)Nc1cnccc1N1CCOCC1 (stereo not shown) [Compound 245]
- IC50 (TGFBR2): < 50 nM
- EC50 [1]: 100 to 1000 nM

Molecule: Nc1ncc(-c2ccc3c(c2)CCC3O)nc1C(=O)Nc1cnccc1N1CCOCC1 (stereo not shown) [Compound 247]
- IC50 (TGFBR2): < 50 nM
- EC50 [1]: 50 to 100 nM

Molecule: Nc1ncc(-c2ccc3c(c2)CC(O)C3)nc1C(=O)Nc1cnccc1N1CCOCC1 (stereo not shown) [Compound 248]
- IC50 (TGFBR2): < 50 nM
- EC50 [1]: 100 to 1000 nM

Molecule: Nc1ncc(-c2ccc3c(c2)CCC(O)C3)nc1C(=O)Nc1cnccc1N1CCOCC1 (stereo not shown) [Compound 249]
- IC50 (TGFBR2): < 50 nM
- EC50 [1]: 100 to 1000 nM

Molecule: Nc1ncc(-c2ccc3c(c2)C(O)CCC3)nc1C(=O)Nc1cnccc1N1CCOCC1 (stereo not shown) [Compound 251]
- IC50 (TGFBR2): < 50 nM
- EC50 [1]: 100 to 1000 nM

Molecule: Nc1ncc(-c2ccc3ccccc3c2)nc1C(=O)Nc1cnccc1N1CCOCC1 [Compound 252]
- IC50 (TGFBR2): < 50 nM
- EC50 [1]: 100 to 1000 nM

Molecule: Nc1ncc(-c2cccc3ccccc23)nc1C(=O)Nc1cnccc1N1CCOCC1 [Compound 253]
- IC50 (TGFBR2): 100 to 1000 nM
- EC50 [1]: > 1000 nM

Molecule: CC(CN)Oc1ccc(-c2cnc(N)c(C(=O)Nc3cnccc3N3CCCOCC3)n2)cc1 (stereo not shown) [Compound 256]
- IC50 (TGFBR2): 50 to 100 nM
- EC50 [1]: 100 to 1000 nM

Molecule: CN(C)c1ccc(-c2cnc(N)c(C(=O)Nc3cnccc3N3CCOCC3)n2)cc1 [Compound 259]
- IC50 (TGFBR2): < 50 nM
- EC50 [1]: < 50 nM

Molecule: CNc1ccc(-c2cnc(N)c(C(=O)Nc3cnccc3N3CCOCC3)n2)cc1 [Compound 260]
- IC50 (TGFBR2): < 50 nM
- EC50 [1]: < 50 nM

Molecule: CC(CN)Oc1ccc(-c2cnc(N)c(C(=O)Nc3cnccc3N3CCCOCCC3)n2)cc1 (stereo not shown) [Compound 261]
- IC50 (TGFBR2): > 1000 nM
- EC50 [1]: > 1000 nM

Molecule: COC(=O)[C@@H](N)CCOc1ccc(-c2cnc(N)c(C(=O)Nc3cnccc3N3CCOCC3)n2)cc1 [Compound 263]
- IC50 (TGFBR2): < 50 nM
- EC50 [1]: 100 to 1000 nM

Molecule: Nc1ncc(-c2ccc(OCC[C@H](N)C(=O)O)cc2)nc1C(=O)Nc1cnccc1N1CCOCC1 [Compound 268]
- IC50 (TGFBR2): < 50 nM
- EC50 [1]: > 1000 nM

Molecule: COC(=O)[C@H](N)CCOc1ccc(-c2cnc(N)c(C(=O)Nc3cnccc3N3CCOCC3)n2)cc1 [Compound 269]
- IC50 (TGFBR2): < 50 nM
- EC50 [1]: 100 to 1000 nM

Molecule: COC(=O)[C@@H](CCOc1ccc(-c2cnc(N)c(C(=O)Nc3cnccc3N3CCOCC3)n2)cc1)NC(=O)OCc1ccccc1 [Compound 270]
- IC50 (TGFBR2): < 50 nM
- EC50 [1]: 100 to 1000 nM

Molecule: NCCNc1ccc(-c2cnc(N)c(C(=O)Nc3cnccc3N3CCOCC3)n2)cc1 [Compound 271]
- IC50 (TGFBR2): < 50 nM
- EC50 [1]: 100 to 1000 nM

Molecule: CN(CCN)c1ccc(-c2cnc(N)c(C(=O)Nc3cnccc3N3CCOCC3)n2)cc1 [Compound 272]
- IC50 (TGFBR2): < 50 nM
- EC50 [1]: 50 to 100 nM

Molecule: CC(C)(C)OC(=O)N[C@H]1CCN(c2ccc(-c3cnc(N)c(C(=O)Nc4cnccc4N4CCOCC4)n3)cc2)C1 [Compound 273]
- IC50 (TGFBR2): < 50 nM
- EC50 [1]: 100 to 1000 nM

Molecule: CC(C)(C)OC(=O)N[C@@H]1CCN(c2ccc(-c3cnc(N)c(C(=O)Nc4cnccc4N4CCOCC4)n3)cc2)C1 [Compound 274]
- IC50 (TGFBR2): < 50 nM
- EC50 [1]: 100 to 1000 nM

Molecule: Nc1ncc(-c2ccc(OCC[C@@H](NC(=O)OCc3ccccc3)C(=O)O)cc2)nc1C(=O)Nc1cnccc1N1CCOCC1 [Compound 276]
- IC50 (TGFBR2): < 50 nM
- EC50 [1]: > 1000 nM

Molecule: Nc1ncc(-c2ccc(N3CC[C@H](N)C3)cc2)nc1C(=O)Nc1cnccc1N1CCOCC1 [Compound 277]
- IC50 (TGFBR2): < 50 nM
- EC50 [1]: 50 to 100 nM

Molecule: Nc1ncc(-c2ccc(N3CC[C@@H](N)C3)cc2)nc1C(=O)Nc1cnccc1N1CCOCC1 [Compound 278]
- IC50 (TGFBR2): < 50 nM
- EC50 [1]: 50 to 100 nM

Molecule: Nc1ncc(-c2ccc(N3CCC(N)CC3)cc2)nc1C(=O)Nc1cnccc1N1CCOCC1 [Compound 279]
- IC50 (TGFBR2): < 50 nM
- EC50 [1]: 50 to 100 nM

Molecule: CC(C)(C)OC(=O)NC1CCN(c2ccc(-c3cnc(N)c(C(=O)Nc4cnccc4N4CCOCC4)n3)cc2)CC1 [Compound 280]
- IC50 (TGFBR2): < 50 nM
- EC50 [1]: 100 to 1000 nM

B1: anti-LRRC15 humanized IgG1 M25 antibody with Fc null domain conjugated to LP1 (antibody, V domains shown)
VH: B2 VH
VL: B2 VL
modifications: linker-payload LP1 on interchain disulfide cysteines, average DAR 2.5-4
- absolute IC50 of TGFβ1-induced SMAD2 promoter luciferase activity, HEK293 reporter cells expressing human LRRC15 (full length human LRRC15): < 10 nM
